Patent US20250009765A1, “COMPOSITIONS AND METHODS FOR REDUCING SLEEP DI[…] TREATING SLEEP DISORDERS” (FloraScience Inc., priority 2023, published 2025)

Assays:
Assay type in all cases: in vivo, human
[1] = Average time to effect reported by participants; details: 4 mg melatonin softgel, oral
Description: (§1) After receiving study product, each participant was instructed to take 1 softgel each day orally 1-2 hours before bed and complete weekly health and product use surveys. This phase of the study lasted about 4 weeks.
Participants reported experiencing an effect between 46 and 55 minutes after taking their study product.

[2] = Tolerability: side effects reported by participants; details: 4 mg melatonin
Description: (§2) The primary aim of this study was to assess the effects of three different formulations of TruCBN softgels and a formulation of 4 mg melatonin on sleep quality, relative to placebo control. There were 5 arms within the study; (1) 4 mg melatonin, (2) 25 mg CBN, (3) 50 mg CBN, (4) 100 mg CBN, and (5) placebo (see Table 1 for further details on study arm formulations). All study arms provided the test article as a softgel. Participants were instructed to take 1 softgel 1-2 hours before bed. To ensure that results were not biased, participants were randomly assigned to product, were blinded to the contents, and were not told what they were taking until the conclusion of the study. The secondary aim of the study was to assess the tolerability of the three formulations of TruCBN softgels and 4 mg melatonin, relative to placebo.
as §1
The side effects for all study arms were similar in frequency and mostly mild; none were considered serious or required use of emergency or non-emergency healthcare services. The most commonly reported side effect was grogginess or drowsiness (see FIG. 7). Additional side effects reported by some participants included: chest pain, constipation, urinary tract infection, tingling in lips, dry mouth, weight gain, dry or itchy eyes, low libido, rash, and brain fog.

sleep disturbance [3] = assay: PROMIS Sleep Disturbance SF4A survey, randomized blinded placebo-controlled study
Description: as §2
(§3) Study participants were at least 21 years old, endorsed a desire for better sleep quality, and expressed interest in taking a cannabinoid product to improve their sleep. The study was entirely virtual; participants were recruited through online recruitment channels, study product was delivered directly to participants' homes, and all data were collected via online surveys delivered to their mobile device or computer. There were four phases of the study (see FIG. 1 for study timeline): (1) Recruitment and Randomization, (2) Baseline (1 week), (3) Study period (2-5 weeks), and (4) Conclusion.
The PROMIS™ Sleep Disturbance SF4A threshold for minimally important difference: One-half the standard deviation of the baseline score (Norman, G. R. et al., Med. Care, 2003, 41:582-592).
as §1
(§4) For precision, adjustments were made for sex, age, race, ethnicity, and body mass index (BMI) in every model. […] Analysis was conducted using Stata 17 and R. An intent-to-treat analysis was run, meaning that all participants who were assigned product (aside from the aforementioned exclusions) were included in the analysis according to their product assignment, regardless of product adherence or study attrition. Visuals of the predicted marginal means of health scores, rather than the raw mean scores, were prepared. Predicted marginal means were calculated from the statistical models and better represent the true differences between arms adjusting for any potential imbalances across arms. A finding that was “significant” means that the likelihood of falsely rejecting the null hypothesis that there were no differences between groups was very small (less than 5%; i.e., the p-value was less than 0.05). In other words, when certain findings were said to be “significant” they are not considered the result of random variation.

sleep disturbance [4] = assay: Participant global impression of change (PGIC) in sleep disturbance
Description: as §2
Participants received a final study survey asking about their overall experiences and impressions. Afterwards they also receive a Report containing their individualized data.
as §4

sleep disturbance [5] = assay: PROMIS Sleep Disturbance 8A survey, randomized blinded placebo-controlled study
Description: as §2, §3
PROMIS™ Sleep Disturbance 8A: An 8-question survey, with severity thresholds based on T-scores not raw scores. The severity scores are established as follows: • “None to slight”=Less than 55 • “Mild”=55.0-59.9 • “Moderate”=60.0-69.9 • “Severe”=70 and up
The range of raw scores were from 8 to 40, with higher scores translating to greater sleep disturbance (i.e., worse sleep quality). PROMIS™ Sleep Disturbance 8A threshold for minimally important difference: One-half the standard deviation of the baseline score (Purvis, Taylor E. et al., SPINE, 2018, 43(21):1512-1520).
as §1, §4

[6] = 4 mg melatonin − placebo, 95% CI in parentheses
[7] = 4 mg melatonin, 30% or greater reduction from baseline
[8] = 4 mg melatonin, improvement = 30% or greater reduction from baseline, 95% CI in parentheses

Compound: COc1ccc2[nH]cc(CCNC(C)=O)c2c1 [melatonin, reference compound]
- Average time to effect [1]: 49.1 min
- % of participants reporting any side effects [2]: 11.9%
- Relative Risk for meaningful clinical improvement on the PROMIS Sleep SF4A (sleep disturbance [3]; [6]): 1.49 (0.74, 2.25)
- Observed % Achieving Meaningful Clinical Improvement on the PROMIS Sleep SF4A (sleep disturbance [3]; [7]): 53.25%
- Estimated marginal percentage achieving meaningful clinical improvement on the PROMIS Sleep SF4A (sleep disturbance [3]; [8]): 51.25% (38.25%, 68.7%)
- Estimated marginal mean, PROMIS Sleep Disturbance SF4A (sleep disturbance [3]; 4 mg melatonin, week 1): 10.8
- Estimated marginal mean, PROMIS Sleep Disturbance SF4A (sleep disturbance [3]; 4 mg melatonin, week 2): 10.7
- Estimated marginal mean, PROMIS Sleep Disturbance SF4A (sleep disturbance [3]; 4 mg melatonin, week 3): 10.7
- Estimated marginal mean, PROMIS Sleep Disturbance SF4A (sleep disturbance [3]; 4 mg melatonin, week 4): 10.5
- Parameter estimate for PGIC in sleep disturbance (sleep disturbance [4]; 4 mg Melatonin, treatment reference placebo, log-odds scale): 0.79
- Marginal mean (95% confidence interval), sleep disturbance PGIC (sleep disturbance [4]; 4 mg melatonin): 3.88
- Odds Ratio (95% Confidence interval), sleep disturbance PGIC (sleep disturbance [4]; 4 mg melatonin − placebo, Dunnett correction): 2.21 (1.15, 4.21)
- Parameter Estimate for PROMIS Sleep Disturbances 8a, Treatment (sleep disturbance [5]; 4 mg Melatonin, reference placebo, linear mixed-effects model): −0.56
- Relative Risk for meaningful clinical improvement on the PROMIS Sleep Disturbance 8A (sleep disturbance [5]; [6]): 1.43 (0.7, 2.16)
- Observed % Achieving Meaningful Clinical Improvement on the PROMIS Sleep 8A (sleep disturbance [5]; [7]): 51.9%
- % experiencing MCID in PROMIS Sleep Disturbance 8A score (sleep disturbance [5]; 4 mg melatonin, MCID = score reduction of one half the standard deviation of the baseline score): 51.9%
- Estimated marginal percentage achieving meaningful clinical improvement on the PROMIS Sleep 8A (sleep disturbance [5]; [8]): 50.5% (37.54%, 67.94%)
- Estimated marginal mean, PROMIS Sleep Disturbance 8A (sleep disturbance [5]; 4 mg melatonin, week 1): 20.7
- Estimated marginal mean, PROMIS Sleep Disturbance 8A (sleep disturbance [5]; 4 mg melatonin, week 2): 20.4
- Estimated marginal mean, PROMIS Sleep Disturbance 8A (sleep disturbance [5]; 4 mg melatonin, week 3): 20.7
- Estimated marginal mean, PROMIS Sleep Disturbance 8A (sleep disturbance [5]; 4 mg melatonin, week 4): 20.4
